Experimental data reported in patent US10875875B2, “Propionic acid derivatives and methods of use thereof” (Aviara Pharmaceuticals, Inc., priority 2017, dated 2020).

molecular target: α4β1 (Homo sapiens, UniProt P05556+P13612); test: α4β1 integrin inhibition, IC50; type: binding; conditions: read-out: α4β1 IC50
Sequence (P13612 34-1032): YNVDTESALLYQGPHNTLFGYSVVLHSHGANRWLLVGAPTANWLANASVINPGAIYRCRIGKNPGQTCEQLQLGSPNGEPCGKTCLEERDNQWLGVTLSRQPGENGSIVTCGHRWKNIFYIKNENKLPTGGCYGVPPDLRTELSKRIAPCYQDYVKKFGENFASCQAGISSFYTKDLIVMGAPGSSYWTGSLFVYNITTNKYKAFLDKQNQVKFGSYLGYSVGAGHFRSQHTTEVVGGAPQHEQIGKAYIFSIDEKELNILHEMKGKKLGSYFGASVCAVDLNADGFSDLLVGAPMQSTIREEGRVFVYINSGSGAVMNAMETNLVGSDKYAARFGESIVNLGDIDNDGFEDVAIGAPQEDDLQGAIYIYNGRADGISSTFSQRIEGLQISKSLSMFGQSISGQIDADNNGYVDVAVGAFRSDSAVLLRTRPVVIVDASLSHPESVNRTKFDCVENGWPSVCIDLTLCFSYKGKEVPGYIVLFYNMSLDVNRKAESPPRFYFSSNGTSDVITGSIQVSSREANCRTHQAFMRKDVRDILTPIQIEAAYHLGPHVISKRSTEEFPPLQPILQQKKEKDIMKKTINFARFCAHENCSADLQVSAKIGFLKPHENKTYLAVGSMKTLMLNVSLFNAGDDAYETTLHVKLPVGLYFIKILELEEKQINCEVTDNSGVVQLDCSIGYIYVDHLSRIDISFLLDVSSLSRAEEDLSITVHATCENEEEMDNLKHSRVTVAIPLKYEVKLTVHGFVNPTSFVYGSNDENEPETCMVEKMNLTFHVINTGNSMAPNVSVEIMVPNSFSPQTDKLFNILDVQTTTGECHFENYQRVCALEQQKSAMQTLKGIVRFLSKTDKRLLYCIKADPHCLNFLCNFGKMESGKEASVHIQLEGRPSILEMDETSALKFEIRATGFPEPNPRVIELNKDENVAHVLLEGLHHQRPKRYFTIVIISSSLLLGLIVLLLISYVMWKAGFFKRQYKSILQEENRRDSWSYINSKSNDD
Sequence (P05556 21-798): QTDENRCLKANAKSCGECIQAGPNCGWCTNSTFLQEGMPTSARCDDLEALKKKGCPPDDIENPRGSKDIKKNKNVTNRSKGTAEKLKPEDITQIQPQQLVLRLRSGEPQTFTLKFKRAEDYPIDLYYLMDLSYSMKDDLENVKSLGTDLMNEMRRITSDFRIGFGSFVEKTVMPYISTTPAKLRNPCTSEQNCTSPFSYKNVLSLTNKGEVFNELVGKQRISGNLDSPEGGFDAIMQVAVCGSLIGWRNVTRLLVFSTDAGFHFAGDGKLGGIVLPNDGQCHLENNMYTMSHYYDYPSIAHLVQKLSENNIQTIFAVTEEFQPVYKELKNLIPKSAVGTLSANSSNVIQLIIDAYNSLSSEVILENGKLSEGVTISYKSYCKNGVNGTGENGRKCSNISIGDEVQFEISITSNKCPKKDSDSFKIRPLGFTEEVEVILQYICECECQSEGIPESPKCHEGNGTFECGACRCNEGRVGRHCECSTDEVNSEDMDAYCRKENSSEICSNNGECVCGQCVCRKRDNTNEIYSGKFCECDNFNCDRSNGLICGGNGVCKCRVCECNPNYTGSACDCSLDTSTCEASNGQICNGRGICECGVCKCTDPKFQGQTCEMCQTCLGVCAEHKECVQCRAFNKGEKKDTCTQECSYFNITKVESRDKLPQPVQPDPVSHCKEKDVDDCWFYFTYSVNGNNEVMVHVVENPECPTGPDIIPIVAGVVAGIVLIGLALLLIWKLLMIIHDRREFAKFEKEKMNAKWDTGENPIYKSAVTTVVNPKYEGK

Row | SMILES | IC50
1 | Cc1cc(O)c(NC(=O)N[C@@H](CC(=O)O)c2cc(F)cc(-c3ccc(F)cc3F)c2)c(=O)n1C [1-632, sodium (S)-3-(3-(1,6-dimethyl-4-oxido-2-oxo-1,2-dihydropyridin-3-yl)ureido)-3-(2′,4′,5-trifluorobiphenyl-3-yl)propanoate] | < 20 nM
2 | Cc1ccc([C@H](CC(=O)O)NC(=O)Nc2c(O)ccn(C)c2=O)cc1-c1cccc(OC(F)(F)F)c1 [1-576, sodium (S)-3-(6-methyl-3′-(trifluoromethoxy)biphenyl-3-yl)-3-(3-(1-methyl-4-oxido-2-oxo-1,2-dihydropyridin-3-yl)ureido)propanoate] | < 20 nM
3 | Cc1ccc([C@H](CC(=O)O)NC(=O)Nc2c(O)cc(C)n(C)c2=O)cc1-c1cccc(OC(F)(F)F)c1 [1-577, sodium (S)-3-(3-(1,6-dimethyl-4-oxido-2-oxo-1,2-dihydropyridin-3-yl)ureido)-3-(6-methyl-3′-(trifluoromethoxy)biphenyl-3-yl)propanoate] | < 20 nM
4 | Cn1ccc(O)c(NC(=O)N[C@@H](CC(=O)O)c2cccc(-c3ccc(Cl)s3)c2)c1=O [1-538, sodium (S)-3-(3-(5-chlorothiophen-2-yl)phenyl)-3-(3-(1-methyl-4-oxido-2-oxo-1,2-dihydropyridin-3-yl)ureido)propanoate] | < 20 nM
5 | COc1cccc(-c2cc([C@H](CC(=O)O)NC(=O)Nc3c(O)ccn(C)c3=O)ccc2OC)c1 [1-524, sodium (S)-3-(3′,6-dimethoxybiphenyl-3-yl)-3-(3-(1-methyl-4-oxido-2-oxo-1,2-dihydropyridin-3-yl)ureido)propanoate] | < 20 nM
6 | Cc1cn(C)c(=O)c(NC(=O)N[C@@H](CC(=O)O)c2cccn2-c2ccccc2)c1O [1-498, sodium (S)-3-(3-(1,5-dimethyl-4-oxido-2-oxo-1,2-dihydropyridin-3-yl)ureido)-3-(1-phenyl-1H-pyrrol-2-yl)propanoate] | > 200 nM
7 | Cc1ccccc1-c1ccc([C@H](CC(=O)O)NC(=O)Nc2c(O)cc(C)n(C)c2=O)cc1 [1-637, sodium (S)-3-(3-(1,6-dimethyl-4-oxido-2-oxo-1,2-dihydropyridin-3-yl)ureido)-3-(2′-methylbiphenyl-4-yl)propanoate] | < 20 nM
8 | Cc1cc(O)c(NC(=O)N[C@@H](CC(=O)O)c2cc(-c3ccc(F)cc3F)ccc2F)c(=O)n1C [1-592, sodium (S)-3-(3-(1,6-dimethyl-4-oxido-2-oxo-1,2-dihydropyridin-3-yl)ureido)-3-(2′,4,4′-trifluorobiphenyl-3-yl)propanoate] | < 20 nM
9 | Cc1cccc(C)c1-c1ccc([C@H](CC(=O)O)NC(=O)Nc2c(O)cc(C)n(C)c2=O)s1 [1-588, sodium (S)-3-(3-(1,6-dimethyl-4-oxido-2-oxo-1,2-dihydropyridin-3-yl)ureido)-3-(5-(2,6-dimethylphenyl)thiophen-2-yl)propanoate] | < 20 nM
10 | COc1cccc(-c2cccc([C@H](CC(=O)O)NC(=O)Nc3c(O)ccn(C)c3=O)c2)n1 [sodium (S)-3-(3-(6-methoxypyridin-2-yl)phenyl)-3-(3-(1-methyl-4-oxido-2-oxo-1,2-dihydropyridin-3-yl)ureido)propanoate] | < 20 nM
11 | Cc1cc(-c2c(C)cccc2C)cc([C@H](CC(=O)O)NC(=O)Nc2c(O)cc(C)n(C)c2=O)c1 [1-597, sodium (S)-3-(3-(1,6-dimethyl-4-oxido-2-oxo-1,2-dihydropyridin-3-yl)ureido)-3-(2′,5,6′-trimethylbiphenyl-3-yl)propanoate] | < 20 nM
12 | Cn1ccc(O)c(NC(=O)N[C@@H](CC(=O)O)c2cccc(-c3ccccc3)n2)c1=O [1-571, sodium (S)-3-(3-(1-methyl-4-oxido-2-oxo-1,2-dihydropyridin-3-yl)ureido)-3-(6-phenylpyridin-2-yl)propanoate] | < 20 nM
13 | Cc1ccccc1-c1ccc([C@H](CC(=O)O)NC(=O)Nc2c(O)ccn(C)c2=O)cc1 [1-616, sodium (S)-3-(3-(1-methyl-4-oxido-2-oxo-1,2-dihydropyridin-3-yl)ureido)-3-(2′-methylbiphenyl-4-yl)propanoate] | < 20 nM
14 | COc1ccc([C@H](CC(=O)O)NC(=O)Nc2c(O)ccn(C)c2=O)cc1-c1ccccc1 [1-529, sodium (S)-3-(6-methoxybiphenyl-3-yl)-3-(3-(1-methyl-4-oxido-2-oxo-1,2-dihydropyridin-3-yl)ureido)propanoate] | < 20 nM
15 | COc1ccc([C@H](CC(=O)O)NC(=O)Nc2c(O)ccn(C)c2=O)cc1-c1ccc(OC(F)(F)F)cc1 [1-536, sodium (S)-3-(6-methoxy-4′-(trifluoromethoxy)biphenyl-3-yl)-3-(3-(1-methyl-4-oxido-2-oxo-1,2-dihydropyridin-3-yl)ureido)propanoate] | < 20 nM

Further lines, results first:

Row | IC50 | SMILES
16 | < 20 nM | Cn1ccc(O)c(NC(=O)N[C@@H](CC(=O)O)c2ccc(-c3ccccc3)s2)c1=O [1-613, sodium (S)-3-(3-(1-methyl-4-oxido-2-oxo-1,2-dihydropyridin-3-yl)ureido)-3-(5-phenylthiophen-2-yl)propanoate]
17 | < 20 nM | Cc1cccc(C)c1-c1cc(F)cc([C@H](CC(=O)O)NC(=O)Nc2c(O)ccn(C)c2=O)c1 [1-600, sodium (S)-3-(5-fluoro-2′,6′-dimethylbiphenyl-3-yl)-3-(3-(1-methyl-4-oxido-2-oxo-1,2-dihydropyridin-3-yl)ureido)propanoate]
18 | < 200 nM | Cc1cn(C)c(=O)c(NC(=O)N[C@@H](CC(=O)O)c2cccc(-c3cccnc3)c2)c1O [1-452, sodium (S)-3-(3-(1,5-dimethyl-4-oxido-2-oxo-1,2-dihydropyridin-3-yl)ureido)-3-(3-(pyridin-3-yl)phenyl)propanoate]
19 | < 200 nM | COc1ccc(-c2cccc([C@H](CC(=O)O)NC(=O)Nc3c(O)c(C)cn(C)c3=O)c2)c(OC)c1 [1-468, sodium (S)-3-(2′,4′-dimethoxybiphenyl-3-yl)-3-(3-(1,5-dimethyl-4-oxido-2-oxo-1,2-dihydropyridin-3-yl)ureido)propanoate]
20 | < 200 nM | Cc1cn(C)c(=O)c(NC(=O)N[C@@H](CC(=O)O)c2cccc(-c3cccc(F)c3F)c2)c1O [1-496, sodium (S)-3-(2′,3′-difluorobiphenyl-3-yl)-3-(3-(1,5-dimethyl-4-oxido-2-oxo-1,2-dihydropyridin-3-yl)ureido)propanoate]
21 | < 20 nM | Cc1cc(O)c(NC(=O)N[C@@H](CC(=O)O)c2cccc(-c3cccc(Cl)c3)c2)c(=O)n1C [1-556, sodium (S)-3-(3′-chlorobiphenyl-3-yl)-3-(3-(1,6-dimethyl-4-oxido-2-oxo-1,2-dihydropyridin-3-yl)ureido)propanoate]
22 | < 20 nM | Cc1ccc([C@H](CC(=O)O)NC(=O)Nc2c(O)ccn(C)c2=O)cc1-c1cccc(Cl)c1 [1-555, sodium (S)-3-(3′-chloro-6-methylbiphenyl-3-yl)-3-(3-(1-methyl-4-oxido-2-oxo-1,2-dihydropyridin-3-yl)ureido)propanoate]
23 | < 20 nM | Cc1cn(C)c(=O)c(NC(=O)N[C@@H](CC(=O)O)c2cccc(-c3cccc(F)c3)c2)c1O [1-465, sodium (S)-3-(3-(1,5-dimethyl-4-oxido-2-oxo-1,2-dihydropyridin-3-yl)ureido)-3-(3′-fluorobiphenyl-3-yl)propanoate]
24 | < 20 nM | Cc1noc(C)c1-c1ccc([C@H](CC(=O)O)NC(=O)Nc2c(O)ccn(C)c2=O)s1 [1-608, sodium (S)-3-(5-(3,5-dimethylisoxazol-4-yl)thiophen-2-yl)-3-(3-(1-methyl-4-oxido-2-oxo-1,2-dihydropyridin-3-yl)ureido)propanoate]
25 | < 20 nM | CCn1ccc2ccc(-c3cccc([C@H](CC(=O)O)NC(=O)Nc4c(O)ccn(C)c4=O)c3)cc21 [1-521, sodium (S)-3-(3-(1-ethyl-1H-indol-6-yl)phenyl)-3-(3-(1-methyl-4-oxido-2-oxo-1,2-dihydropyridin-3-yl)ureido)propanoate]
26 | < 20 nM | Cn1ccc(O)c(NC(=O)N[C@@H](CC(=O)O)c2cc(-c3ccc(F)cc3F)cs2)c1=O [1-523, sodium (S)-3-(4-(2,4-difluorophenyl)thiophen-2-yl)-3-(3-(1-methyl-4-oxido-2-oxo-1,2-dihydropyridin-3-yl)ureido)propanoate]
27 | < 20 nM | Cc1cscc1-c1cccc([C@H](CC(=O)O)NC(=O)Nc2c(O)ccn(C)c2=O)c1 [1-540, sodium (S)-3-(3-(1-methyl-4-oxido-2-oxo-1,2-dihydropyridin-3-yl)ureido)-3-(3-(4-methylthiophen-3-yl)phenyl)propanoate]
28 | < 200 nM | Cc1cc(C)cc(-c2cccc([C@H](CC(=O)O)NC(=O)Nc3c(O)c(C)cn(C)c3=O)c2)c1 [1-454, sodium (S)-3-(3-(1,5-dimethyl-4-oxido-2-oxo-1,2-dihydropyridin-3-yl)ureido)-3-(3′,5′-dimethylbiphenyl-3-yl)propanoate]
29 | < 20 nM | Cc1ccccc1-c1cccc([C@H](CC(=O)O)NC(=O)Nc2c(O)cc(C)n(C)c2=O)c1 [1-599, sodium (S)-3-(3-(1,6-dimethyl-4-oxido-2-oxo-1,2-dihydropyridin-3-yl)ureido)-3-(2′-methylbiphenyl-3-yl)propanoate]
30 | < 20 nM | COc1cc(-c2ccc(F)cc2F)cc([C@H](CC(=O)O)NC(=O)Nc2c(O)cc(C)n(C)c2=O)c1 [1-581, sodium (S)-3-(2′,4′-difluoro-5-methoxybiphenyl-3-yl)-3-(3-(1,6-dimethyl-4-oxido-2-oxo-1,2-dihydropyridin-3-yl)ureido)propanoate]
31 | < 20 nM | Cn1ccc(O)c(NC(=O)N[C@@H](CC(=O)O)c2cccc(-c3cccs3)c2)c1=O [1-532, sodium (S)-3-(3-(1-methyl-4-oxido-2-oxo-1,2-dihydropyridin-3-yl)ureido)-3-(3-(thiophen-2-yl)phenyl)propanoate]
32 | < 200 nM | CCn1cc(C)c(O)c(NC(=O)N[C@@H](CC(=O)O)c2cccc(-c3ccccc3)c2)c1=O [1-438, sodium (S)-3-(biphenyl-3-yl)-3-(3-(1-ethyl-5-methyl-4-oxido-2-oxo-1,2-dihydropyridin-3-yl)ureido)propanoate]
33 | < 200 nM | Cc1cn(C)c(=O)c(NC(=O)N[C@@H](CC(=O)O)c2ccc(-c3ccccc3)cc2)c1O [1-643, sodium (S)-3-(biphenyl-4-yl)-3-(3-(1,5-dimethyl-4-oxido-2-oxo-1,2-dihydropyridin-3-yl)ureido)propanoate]
